From BindingDB's records for doi:10.1021/acs.jmedchem.9b01227 (Johann Wolfgang Goethe-University, 2019)
pIC50: −log10 of the molar value.

Target: Mitogen-activated protein kinase kinase kinase 20 (ZAK) (Homo sapiens) (UniProt Q9NYL2)
Test: Inhibition of ZAK (unknown origin) expressed in human HEK293 cells incubated for 2 hrs followed by NanoBRET NanoGlo Substrate addition by NanoBRET assay

Sequence of Mitogen-activated protein kinase kinase kinase 20 (ZAK) (Homo sapiens) (Q9NYL2 whole entry, looked up): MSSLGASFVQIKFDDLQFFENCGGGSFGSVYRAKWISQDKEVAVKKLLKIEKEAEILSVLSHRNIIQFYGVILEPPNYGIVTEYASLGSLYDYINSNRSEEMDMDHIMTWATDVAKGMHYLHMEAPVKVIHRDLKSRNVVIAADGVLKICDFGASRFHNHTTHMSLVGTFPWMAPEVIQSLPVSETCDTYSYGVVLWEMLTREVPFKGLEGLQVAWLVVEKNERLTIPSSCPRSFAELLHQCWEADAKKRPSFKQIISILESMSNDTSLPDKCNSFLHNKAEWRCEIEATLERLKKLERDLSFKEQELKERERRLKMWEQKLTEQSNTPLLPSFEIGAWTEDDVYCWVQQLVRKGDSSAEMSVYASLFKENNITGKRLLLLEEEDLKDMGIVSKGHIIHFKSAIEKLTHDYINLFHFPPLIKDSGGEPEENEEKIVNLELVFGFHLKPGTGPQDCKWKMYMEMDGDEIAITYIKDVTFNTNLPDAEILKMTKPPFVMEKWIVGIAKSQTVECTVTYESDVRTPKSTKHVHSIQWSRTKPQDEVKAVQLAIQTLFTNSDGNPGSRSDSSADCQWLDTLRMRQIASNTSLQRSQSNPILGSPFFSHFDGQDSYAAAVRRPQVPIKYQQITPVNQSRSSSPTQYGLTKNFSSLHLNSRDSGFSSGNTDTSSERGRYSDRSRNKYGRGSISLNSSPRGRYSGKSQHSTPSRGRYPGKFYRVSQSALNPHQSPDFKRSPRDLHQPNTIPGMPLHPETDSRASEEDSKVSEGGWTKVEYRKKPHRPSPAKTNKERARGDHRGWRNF

Row | pIC50 | Compound
1 | 5.24 | O=C(NCCCC1CCCCC1)c1ccc(CNC(=O)c2cnn(-c3ccccc3)c2C(F)(F)F)cc1
2 | 6.04 | Nc1c(C(=O)NCc2ccc(C(=O)NCCCC3CCCCC3)cc2)cnn1-c1ccccc1
